The text below walks through data of US20240067637A1, “NAPHTHYRIDINE AND PYRIDO[3,4-c]PYRIDAZINE DERIVATIVES AS GABAA ALPHA 5 RECEPTOR MODULATORS” (Richter Gedeon Nyrt., priority 2020, published 2024).

By pKi is commonly meant −log10 of the Ki, conventionally taken in molar units.

pKi: −log10 of the molar value.

human recombinant GABAA α5β3γ2 receptor, sequence (P31644 32-462): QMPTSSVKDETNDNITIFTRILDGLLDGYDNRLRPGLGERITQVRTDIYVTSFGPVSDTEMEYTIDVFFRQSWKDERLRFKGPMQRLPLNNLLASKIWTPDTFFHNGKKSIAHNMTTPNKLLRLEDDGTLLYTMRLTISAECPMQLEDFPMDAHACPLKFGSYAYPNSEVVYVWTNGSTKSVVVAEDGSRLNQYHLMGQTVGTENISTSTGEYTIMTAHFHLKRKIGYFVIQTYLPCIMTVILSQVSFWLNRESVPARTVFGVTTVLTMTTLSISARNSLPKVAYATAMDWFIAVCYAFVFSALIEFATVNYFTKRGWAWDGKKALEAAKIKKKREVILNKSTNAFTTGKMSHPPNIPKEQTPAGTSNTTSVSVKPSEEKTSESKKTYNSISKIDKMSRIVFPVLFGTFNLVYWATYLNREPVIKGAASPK
human recombinant GABAA α5β3γ2 receptor, sequence (P28472 26-473 partner): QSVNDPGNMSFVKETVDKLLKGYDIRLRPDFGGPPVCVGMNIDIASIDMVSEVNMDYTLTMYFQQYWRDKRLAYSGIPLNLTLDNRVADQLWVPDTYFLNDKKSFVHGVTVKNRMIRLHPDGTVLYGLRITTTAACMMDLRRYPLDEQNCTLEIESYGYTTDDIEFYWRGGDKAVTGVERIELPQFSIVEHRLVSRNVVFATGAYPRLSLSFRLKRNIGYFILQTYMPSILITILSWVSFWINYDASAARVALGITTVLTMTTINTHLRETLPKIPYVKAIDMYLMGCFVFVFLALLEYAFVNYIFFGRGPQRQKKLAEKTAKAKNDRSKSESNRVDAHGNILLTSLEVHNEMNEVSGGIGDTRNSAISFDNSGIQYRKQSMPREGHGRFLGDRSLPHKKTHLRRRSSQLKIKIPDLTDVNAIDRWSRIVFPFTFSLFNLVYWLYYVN
human recombinant GABAA α5β3γ2 receptor, sequence (P18507 40-475): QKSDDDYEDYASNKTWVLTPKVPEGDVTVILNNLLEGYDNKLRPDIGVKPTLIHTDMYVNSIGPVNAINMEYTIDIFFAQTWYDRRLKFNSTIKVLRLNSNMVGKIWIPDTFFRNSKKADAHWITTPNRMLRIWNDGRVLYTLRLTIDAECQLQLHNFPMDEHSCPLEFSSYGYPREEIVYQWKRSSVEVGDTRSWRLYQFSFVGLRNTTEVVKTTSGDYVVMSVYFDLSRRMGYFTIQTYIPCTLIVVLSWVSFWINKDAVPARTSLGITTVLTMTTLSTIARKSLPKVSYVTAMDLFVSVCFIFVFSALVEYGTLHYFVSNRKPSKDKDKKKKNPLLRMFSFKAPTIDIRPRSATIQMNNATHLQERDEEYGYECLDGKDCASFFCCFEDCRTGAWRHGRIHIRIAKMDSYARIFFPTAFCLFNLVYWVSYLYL

The test concerns the target human recombinant GABAA α5β3γ2 receptor (Homo sapiens (Human), UniProt P18507+P31644). As to the kind of experiment: Radioligand ([3H]Ro151788) receptor binding assay. To be noted: membranes of HEK cells expressing human recombinant GABAA α5β3γ2; 0.5 nM [3H]Ro151788; 60 minutes at 4° C.; read-out: hGABAA α5 Ki. Here is the method: The GABAA α5β3γ2 protein used for the receptor binding assay was derived from membranes produced from HEK cells (Millipore CYL3073) expressing the human recombinant GABAA α5β3γ2 receptor. Cells were stored and cultured in-house according to the instructions provided by the vendor (Millipore). Cell pellet was homogenized in 10 times modified Krebs Henseleit buffer (membrane preparation buffer): 20 mM Tris, 120 mM NaCl, 100 mM KCl, 25 mM CaCl2 and 25 mM MgCl2 pH=7.4 at 4° C. using Ultra Turrax (Janke&Kunkel) maximal speed for 15 seconds. The homogenate was centrifuged at 40,000 g for 30 minutes at 4° C. Supernatant was discarded and the resulting pellet was washed in membrane preparation buffer. Pellet was resuspended in membrane preparation buffer and aliquots of 1.4 mL ampules were stored at −70° C. until use.
Receptor binding assays were performed in 96-well format in deep-well plates. For each 96-well plate one ampule of membrane homogenate was thawed and diluted in binding buffer (50 mM Tris pH=7.4, 100 mM KCl) and 200 μL was dispensed into each well. Radioligand [^3H]Ro151788 (Perkin Elmer: NET757250UC) was prepared in binding buffer and added to each well in 50 μL volume to give final concentration of 0.5 nM. Test compounds in suitable concentration(s) were added in additional 50 μL. The final assay volume was 300 μL. Incubation was carried out for 60 minutes at 4° C. For non-specific binding 10 μM unlabeled diazepam was used. After incubation samples were filtered over UniFilter® GF/BT using Filtermate Harvester (Perkin Elmer) and washed with 5×1 mL binding buffer. The plate was dried at 40° C. for an hour and 40 μL Microscint (Perkin Elmer) scintillation cocktail was added to each well. The plate was read in Microbeta (Perkin Elmer).
The specific radioligand binding (SB) was defined as the difference between total binding (Tot) and the non-specific binding (NSB). Results are expressed as a percent inhibition of specific binding obtained in the presence of compound of interest.
For IC50 and Ki determination a minimum of six drug concentrations in triplicate were used. IC50 values (i.e. concentration of compound giving 50% inhibition of specific binding) were calculated from concentration-displacement curves by sigmoidal fitting using Origin 7.5 software. Ki values (i.e. inhibition constants) were calculated using the Cheng-Prusoff equation Ki=IC50/[1+(L/KD)], where [L] is the radioligand concentration and KD the affinity of the labelled ligand for receptor. KD was determined from the Saturation analyses.
Regarding `Cc1ccc(-n2nnc(C)c2COc2cc3c(cn2)CN(C(=O)CF)CC3)cn1` [Example 38, 2-fluoro-1-(6-{[4-methyl-1-(6-methylpyridin-3-yl)-1H-1,2,3-triazol-5-yl]methoxy}-1,2,3,4-tetrahydro-2,7-naphthyridin-2-yl)ethan-1-one], the pKi was 8.18.
`Cc1ccc(-n2nnc(C)c2COc2cc3c(cn2)CN(C(=O)C(C)C)CC3)cn1` [Example 39, 2-methyl-1-(6-{[4-methyl-1-(6-methylpyridin-3-yl)-1H-1,2,3-triazol-5-yl]methoxy}-1,2,3,4-tetrahydro-2,7-naphthyridin-2-yl)propan-1-one]: the pKi is 7.52.
Next, `Cc1ccc(-n2nnc(C)c2COc2cc3c(cn2)CN(C(=O)CC(C)C)CC3)cn1` [Example 41, 3-methyl-1-(6-{[4-methyl-1-(6-methylpyridin-3-yl)-1H-1,2,3-triazol-5-yl]methoxy}-1,2,3,4-tetrahydro-2,7-naphthyridin-2-yl)butan-1-one]: 7.32; `CCC(=O)N1CCc2cc(OCc3c(C)nnn3-c3ccc(C)nc3)ncc2C1` [Example 43, 1-(6-{[4-methyl-1-(6-methylpyridin-3-yl)-1H-1,2,3-triazol-5-yl]methoxy}-1,2,3,4-tetrahydro-2,7-naphthyridin-2-yl)propan-1-one]: 7.70; `Cc1ccc(-n2nnc(C)c2COc2cc3c(cn2)CN(C(=O)C2CC2)CC3)cn1` [Example 44, 2-cyclopropanecarbonyl-6-{[4-methyl-1-(6-methylpyridin-3-yl)-1H-1,2,3-triazol-5-yl]methoxy}-1,2,3,4-tetrahydro-2,7-naphthyridine]: 7.66.
`CC(=O)N1CCc2cc(OCc3c(C)nnn3-c3ccc(C(F)(F)F)nc3)ncc2C1` [Example 47, 1-[6-({4-methyl-1-[6-(trifluoromethyl)pyridin-3-yl]-1H-1,2,3-triazol-5-yl}methoxy)-1,2,3,4-tetrahydro-2,7-naphthyridin-2-yl]ethan-1-one]: the pKi is 7.60.
Regarding `CCC(=O)N1CCc2cc(OCc3c(C)nnn3-c3ccc(C(F)(F)F)nc3)ncc2C1` [Example 48, 1-[6-({4-methyl-1-[6-(trifluoromethyl)pyridin-3-yl]-1H-1,2,3-triazol-5-yl}methoxy)-1,2,3,4-tetrahydro-2,7-naphthyridin-2-yl]propan-1-one], the pKi is 7.48.
Take `Cc1nnn(-c2ccc(C(F)(F)F)nc2)c1COc1cc2c(cn1)CN(C(=O)CF)CC2` [Example 49, 2-fluoro-1-[6-({4-methyl-1-[6-(trifluoromethyl)pyridin-3-yl]-1H-1,2,3-triazol-5-yl}methoxy)-1,2,3,4-tetrahydro-2,7-naphthyridin-2-yl]ethan-1-one]: the pKi was 7.82.
Take `Cc1nnn(-c2ccc(C(F)(F)F)nc2)c1COc1cc2c(cn1)CN(C(=O)C(C)C)CC2` [Example 50, 2-methyl-1-[6-({4-methyl-1-[6-(trifluoromethyl)pyridin-3-yl]-1H-1,2,3-triazol-5-yl}methoxy)-1,2,3,4-tetrahydro-2,7-naphthyridin-2-yl]propan-1-one]: the pKi was 7.36.
`Cc1nnn(-c2ccc(C(F)(F)F)nc2)c1COc1cc2c(cn1)CN(C(=O)C1CC1)CC2` [Example 51, 2-cyclopropanecarbonyl-6-({4-methyl-1-[6-(trifluoromethyl)pyridin-3-yl]-1H-1,2,3-triazol-5-yl}methoxy)-1,2,3,4-tetrahydro-2,7-naphthyridine]: the pKi was 7.51.
Next, `CC(=O)N1CCc2cc(OCc3c(C)nnn3-c3ccc(C(F)(F)F)nc3)nnc2C1` [Example 53, 1-[3-({4-methyl-1-[6-(trifluoromethyl)pyridin-3-yl]-1H-1,2,3-triazol-5-yl}methoxy)-5,8-dihydropyrido[3,4-c]pyridazin-7(6H)-yl]ethanone]: 7.00.
Take `CC(=O)N1CCc2cc(OCc3c(C)nnn3-c3ccc(C(F)F)nc3)ncc2C1` [Example 55, 1-[6-({1-[6-(difluoromethyl)pyridin-3-yl]-4-methyl-1H-1,2,3-triazol-5-yl}methoxy)-3,4 dihydro-2,7-naphthyridin-2(1H)-yl]ethanone]: the pKi is 8.96.
For the molecule `CCC(=O)N1CCc2cc(OCc3c(C)nnn3-c3ccc(C(F)F)nc3)ncc2C1` [Example 56, 1-[6-({1-[6-(difluoromethyl)pyridin-3-yl]-4-methyl-1H-1,2,3-triazol-5-yl}methoxy)-3,4 dihydro-2,7-naphthyridin-2(1H)-yl]propan-1-one], the pKi is 8.80.
Turning to `Cc1nnn(-c2ccc(C(F)F)nc2)c1COc1cc2c(cn1)CN(C(=O)CF)CC2` [Example 57, 2-fluoro-1-[6-({4-methyl-1-[6-(difluoromethyl)pyridin-3-yl]-1H-1,2,3-triazol-5-yl}methoxy)-1,2,3,4-tetrahydro-2,7-naphthyridin-2-yl]ethan-1-one], the pKi is 9.05.
For `CC(=O)N1CCc2cc(OCc3c(-c4ccc(C)nc4)nnn3C)ncc2C1` [Example 60, 1-(6-{[1-methyl-4-(6-methylpyridin-3-yl)-1H-1,2,3-triazol-5-yl]methoxy}-1,2,3,4-tetrahydro-2,7-naphthyridin-2-yl)ethan-1-one], the pKi is 7.66.
Turning to `CCC(=O)N1CCc2cc(OCc3c(-c4ccc(C)nc4)nnn3C)ncc2C1` [Example 62, 1-(6-{[1-methyl-4-(6-methylpyridin-3-yl)-1H-1,2,3-triazol-5-yl]methoxy}-1,2,3,4-tetrahydro-2,7-naphthyridin-2-yl)propan-1-one], the pKi was 7.48.
For the molecule `Cc1ccc(-c2nnn(C)c2COc2cc3c(cn2)CN(C(=O)C(C)C)CC3)cn1` [Example 63, 2-methyl-1-(6-{[1-methyl-4-(6-methylpyridin-3-yl)-1H-1,2,3-triazol-5-yl]methoxy}-1,2,3,4-tetrahydro-2,7-naphthyridin-2-yl)propan-1-one], the pKi was 7.37.
As to `Cc1ccc(-c2nnn(C)c2COc2cc3c(cn2)CN(C(=O)C2CC2)CC3)cn1` [Example 65, 2-cyclopropanecarbonyl-6-{[1-methyl-4-(6-methylpyridin-3-yl)-1H-1,2,3-triazol-5-yl]methoxy}-1,2,3,4-tetrahydro-2,7-naphthyridine], the pKi is 7.28.
For `Cc1ccc(-c2nnn(C)c2COc2cc3c(cn2)CN(C(=O)CF)CC3)cn1` [Example 68, 2-fluoro-1-(6-{[1-methyl-4-(6-methylpyridin-3-yl)-1H-1,2,3-triazol-5-yl]methoxy}-1,2,3,4-tetrahydro-2,7-naphthyridin-2-yl)ethan-1-one], the pKi was 8.04.
